Source: PubChem BioAssay AID248 (DTP/NCI, 2004)
“And” between values parts separate entries of the source, which are not always exact repeats. Equal entries are not always repeated. Toxic doses and inconclusive results are not listed.

Test system: L1210 leukemia ip in BDF1 mice, survival T/C
Experiment: NCI In Vivo Anticancer Drug Screen. Data for tumor model L1210 Leukemia (intraperitoneal) in B6D2F1 (BDF1) mice
Settings: endpoint: mean survival time, higher = longer survival
Method in brief: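 Transplantable tumor model; survival measured in treated vs vehicle control mice. Value = treated/control.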

[1] = dose: 100.0 mg/kg/injection, schedule: Q01DX009 (ip), vehicle: Klucel (hydroxypropylcellulose) (HPC)
[2] = dose: 100.0 mg/kg/injection, schedule: Q04DX002 (ip), vehicle: Klucel (hydroxypropylcellulose) (HPC)
[3] = dose: 100.0 mg/kg/injection, schedule: Q04DX003 (ip), vehicle: Klucel (hydroxypropylcellulose) (HPC)
[4] = dose: 200.0 mg/kg/injection, schedule: Q01DX009 (ip), vehicle: Klucel (hydroxypropylcellulose) (HPC)
[5] = dose: 200.0 mg/kg/injection, schedule: Q04DX002 (ip), vehicle: Klucel (hydroxypropylcellulose) (HPC)
[6] = dose: 200.0 mg/kg/injection, schedule: Q04DX003 (ip), vehicle: Klucel (hydroxypropylcellulose) (HPC)
[7] = dose: 400.0 mg/kg/injection, schedule: Q01DX009 (ip), vehicle: Klucel (hydroxypropylcellulose) (HPC)
[8] = dose: 400.0 mg/kg/injection, schedule: Q04DX002 (ip), vehicle: Klucel (hydroxypropylcellulose) (HPC)
[9] = dose: 400.0 mg/kg/injection, schedule: Q04DX003 (ip), vehicle: Klucel (hydroxypropylcellulose) (HPC)
[10] = dose: 100.0 mg/kg/injection, schedule: Q01DX001 (ip), vehicle: saline
[11] = dose: 200.0 mg/kg/injection, schedule: Q01DX001 (ip), vehicle: saline
[12] = dose: 100.0 mg/kg/injection, schedule: Q01DX009 (ip), vehicle: saline with Tween-80
[13] = dose: 100.0 mg/kg/injection, schedule: Q04DX003 (ip), vehicle: saline with Tween-80
[14] = dose: 200.0 mg/kg/injection, schedule: Q04DX003 (ip), vehicle: saline with Tween-80
[15] = dose: 400.0 mg/kg/injection, schedule: Q04DX003 (ip), vehicle: saline with Tween-80
[16] = dose: 100.0 mg/kg/injection, schedule: Q04DX003 (ip), vehicle: water
[17] = dose: 100.0 mg/kg/injection, schedule: Q04DX002 (ip), vehicle: saline with Tween-80
[18] = dose: 200.0 mg/kg/injection, schedule: Q04DX002 (ip), vehicle: saline with Tween-80
[19] = dose: 400.0 mg/kg/injection, schedule: Q04DX002 (ip), vehicle: saline with Tween-80
[20] = dose: 200.0 mg/kg/injection, schedule: Q01DX009 (ip), vehicle: saline with Tween-80
[21] = dose: 400.0 mg/kg/injection, schedule: Q01DX009 (ip), vehicle: saline with Tween-80
[22] = dose: 100.0 mg/kg/injection, schedule: Q01DX001 (ip), vehicle: Klucel (hydroxypropylcellulose) (HPC)
[23] = dose: 200.0 mg/kg/injection, schedule: Q01DX001 (ip), vehicle: Klucel (hydroxypropylcellulose) (HPC)
[24] = dose: 400.0 mg/kg/injection, schedule: Q01DX001 (ip), vehicle: Klucel (hydroxypropylcellulose) (HPC)

For `CC(=O)Nc1ccc(/C=C/c2ccc([N+](=O)[O-])cc2)cc1`, the T/C [1] was 100 % of control, the T/C [2] was 96 % of control and the T/C [3] was 100 % of control. The T/C [4] was 95 % of control, the T/C [5] was 93 % of control and the T/C [6] was 98 % of control. The T/C [7] was 92 % of control, the T/C [8] was 104 % of control and the T/C [9] was 107 % of control.
For `Cc1cc(C)c([As](=O)(O)O)c([N+](=O)[O-])c1`, the T/C [10] was 90 % of control, the T/C [11] was 101 % of control and the T/C (dose: 400.0 mg/kg/injection, schedule: Q01DX001 (ip), vehicle: saline) was 104 % of control.
With `NS(=O)(=O)c1ccc(NC(=O)Nc2ccccc2C(F)(F)F)cc1` the T/C [1] was 100 % of control, the T/C [4] was 89 % of control and the T/C [7] was 93 % of control.
For `C[C@]12CCC(=O)C=C1CC[C@@H]1[C@@H]2[C@@H](O)C[C@@]2(C)[C@H]1CC[C@]2(O)C(=O)COC(=O)CCC1CCCC1`, the T/C (dose: 50.0 mg/kg/injection, schedule: Q04DX003 (sc), vehicle: steriod suspending solution) was 100 % of control, the T/C (dose: 100.0 mg/kg/injection, schedule: Q04DX003 (sc), vehicle: steriod suspending solution) was 96 % of control and the T/C (dose: 200.0 mg/kg/injection, schedule: Q04DX003 (sc), vehicle: steriod suspending solution) was 97 % of control. The T/C (dose: 400.0 mg/kg/injection, schedule: Q04DX003 (sc), vehicle: steriod suspending solution) was 96 % of control.
With `Cc1ccccc1-c1nc2cc(Cl)ccc2c(=O)o1` the T/C (dose: 25.0 mg/kg/injection, schedule: Q01DX009 (ip), vehicle: saline with Tween-80) was 98 % of control, the T/C (dose: 50.0 mg/kg/injection, schedule: Q01DX009 (ip), vehicle: saline with Tween-80) was 88 % of control and the T/C [12] was 96 % of control. The T/C [13] was 100 % of control, the T/C [14] was 102 % of control and the T/C [15] was 108 % of control.
For `COC(OC)c1cc(=O)[nH]c(=S)n1Cl`, the T/C [1] was 86 % of control, the T/C [3] was 102 % of control and the T/C [4] was 91 % of control. For the same molecule, the T/C [6] was 107 % of control, the T/C [7] was 91 % of control and the T/C [9] was 105 % of control.
With `O=C(C(O)C(O)C(O)C(O)CO)N1CCC(c2ccccc2)(c2ccccc2)CC1` (centres undefined) the T/C (dose: 100.0 mg/kg/injection, schedule: Q01DX003 (ip), vehicle: saline) was 91 % of control, the T/C (dose: 200.0 mg/kg/injection, schedule: Q01DX003 (ip), vehicle: saline) was 94 % of control and the T/C (dose: 400.0 mg/kg/injection, schedule: Q01DX003 (ip), vehicle: saline) was 87 % of control.
In the case of `CC(=O)OC(C(N)=O)C(OC(C)=O)C(=O)O` (centres undefined), the T/C [16] is reported as 96 % of control, the T/C (dose: 200.0 mg/kg/injection, schedule: Q04DX003 (ip), vehicle: water) is reported as 100 % of control and the T/C (dose: 400.0 mg/kg/injection, schedule: Q04DX003 (ip), vehicle: water) is reported as 97 % of control.
For `CN(C)P(=O)(N(C)C)N1CC1`, the T/C (dose: 0.75 mg/kg/injection, schedule: Q01DX009 (ip), vehicle: saline) was 98 % of control, the T/C (dose: 1.5 mg/kg/injection, schedule: Q01DX009 (ip), vehicle: saline) was 103 % of control and the T/C (dose: 3.7 mg/kg/injection, schedule: Q01DX009 (ip), vehicle: saline) was 101 % of control. For the same molecule, the T/C (dose: 3.75 mg/kg/injection, schedule: Q01DX009 (ip), vehicle: saline) was 98 % of control, the T/C (dose: 7.5 mg/kg/injection, schedule: Q01DX009 (ip), vehicle: saline) was 113 % of control and 115 % of control and the T/C (dose: 15.0 mg/kg/injection, schedule: Q01DX009 (ip), vehicle: saline) was 120 % of control. The T/C (dose: 30.0 mg/kg/injection, schedule: Q01DX001 (ip), vehicle: saline) was 111 % of control and the T/C (dose: 30.0 mg/kg/injection, schedule: Q01DX009 (ip), vehicle: saline) was 173 % of control.
For `O=C(Nc1ccc(Cl)cc1)Oc1ccc(Cl)cc1Cc1ccccc1`, the T/C [17] was 93 % of control, the T/C [18] was 118 % of control and the T/C [19] was 89 % of control.
With `CC1(C)C2CCC1(C)C(OCC(=O)O)C2` (centres undefined) the T/C [2] was 96 % of control, the T/C [5] was 121 % of control and the T/C [8] was 102 % of control.
`c1ccc2c(c1)ccc1ncccc12` was tested, and the T/C [3] was 103 % of control, the T/C [6] was 102 % of control and the T/C [9] was 101 % of control.
In the case of `COc1ccc(CSC(=S)NNc2ccccc2)cc1`, the T/C [1] is reported as 96 % of control, the T/C [3] is reported as 98 % of control and the T/C [4] is reported as 86 % of control. For the same molecule, the T/C [6] was 93 % of control, the T/C [7] was 87 % of control and the T/C [9] was 90 % of control.
For `CCOC(=O)CCC(NC(=O)c1ccc(N(C)S(=O)(=O)c2ccc(C)cc2)c2ccccc12)C(=O)OCC` (centres undefined), the T/C [12] was 108 % of control, the T/C [13] was 97 % of control and the T/C [20] was 94 % of control. The T/C [14] was 100 % of control, the T/C [21] was 92 % of control and the T/C [15] was 100 % of control.
`Clc1cc(NCc2ccco2)ncn1` was tested, and the T/C (dose: 50.0 mg/kg/injection, schedule: Q01DX001 (ip), vehicle: Klucel (hydroxypropylcellulose) (HPC)) was 103 % of control, the T/C [22] was 97 % of control and the T/C [23] was 97 % of control.
For `Cc1cc(C)nc(NCCCCC(N)C(=O)O)n1` (centres undefined), the T/C (dose: 50.0 mg/kg/injection, schedule: Q04DX002 (ip), vehicle: saline) was 104 % of control, the T/C (dose: 100.0 mg/kg/injection, schedule: Q04DX002 (ip), vehicle: saline) was 104 % of control and the T/C (dose: 200.0 mg/kg/injection, schedule: Q04DX002 (ip), vehicle: saline) was 101 % of control.
`CCOC(=O)CSc1ccc2ccccc2[n+]1-c1ccccc1` was tested, and the T/C [10] was 99 % of control and the T/C [11] was 94 % of control.
`O=S(=O)(O/N=C1\N=C(NOS(=O)(=O)c2ccccc2)c2ccccc21)c1ccccc1` was tested, and the T/C (dose: 100.0 mg/kg/injection, schedule: Q01DX001 (ip), vehicle: saline with Tween-80) was 87 % of control and 92 % of control, the T/C [17] was 102 % of control and 90 % of control and the T/C [13] was 101 % of control. The T/C (dose: 200.0 mg/kg/injection, schedule: Q01DX001 (ip), vehicle: saline with Tween-80) was 97 % of control and 91 % of control, the T/C [18] was 98 % of control and 92 % of control and the T/C [14] was 94 % of control. For the same molecule, the T/C (dose: 400.0 mg/kg/injection, schedule: Q01DX001 (ip), vehicle: saline with Tween-80) was 87 % of control and 92 % of control, the T/C [19] was 112 % of control and 87 % of control and the T/C [15] was 92 % of control.
For `Sc1c(Cl)c(Cl)c(Cl)c(Cl)c1Cl`, the T/C [22] was 106 % of control, the T/C [1] was 93 % of control and the T/C [23] was 106 % of control. For the same molecule, the T/C [4] was 100 % of control, the T/C [24] was 104 % of control and the T/C [7] was 93 % of control.
In the case of `COc1ccc(/C=C/C(=O)O)cc1`, the T/C [12] is reported as 100 % of control, the T/C [17] is reported as 88 % of control and the T/C [20] is reported as 107 % of control. The T/C [18] was 98 % of control, the T/C [21] was 97 % of control and the T/C [19] was 88 % of control.
For `CC(C)=CCC/C(C)=C/CN1C(=O)C=CC1=O`, the T/C (dose: 12.5 mg/kg/injection, schedule: Q01DX009 (ip), vehicle: water) was 91 % of control, the T/C (dose: 25.0 mg/kg/injection, schedule: Q01DX009 (ip), vehicle: water) was 86 % of control and the T/C (dose: 25.0 mg/kg/injection, schedule: Q04DX003 (ip), vehicle: water) was 97 % of control. The T/C (dose: 50.0 mg/kg/injection, schedule: Q04DX003 (ip), vehicle: water) was 98 % of control and the T/C [16] was 104 % of control.
In the case of `CCC1(CCCCBr)OCCO1`, the T/C [22] is reported as 103 % of control, the T/C [23] is reported as 100 % of control and the T/C [24] is reported as 93 % of control.
In the case of `CC1(C)C(=O)C(=O)C2CCCCC21` (centres undefined), the T/C [12] is reported as 97 % of control, the T/C [20] is reported as 110 % of control and the T/C [21] is reported as 92 % of control.
In the case of `CCCCOP(=S)(Cc1ccccc1)OCCCC`, the T/C [1] is reported as 104 % of control, the T/C [4] is reported as 104 % of control and the T/C [7] is reported as 104 % of control.
